Laboratory results from the Kinase Knowledgebase extract (Sharma et al. 2016).

target: PIK3CG (human) (UniProt P48736); assay: Assessment of PIK3CG Kinase Activity
Sequence (P48736 whole entry, looked up): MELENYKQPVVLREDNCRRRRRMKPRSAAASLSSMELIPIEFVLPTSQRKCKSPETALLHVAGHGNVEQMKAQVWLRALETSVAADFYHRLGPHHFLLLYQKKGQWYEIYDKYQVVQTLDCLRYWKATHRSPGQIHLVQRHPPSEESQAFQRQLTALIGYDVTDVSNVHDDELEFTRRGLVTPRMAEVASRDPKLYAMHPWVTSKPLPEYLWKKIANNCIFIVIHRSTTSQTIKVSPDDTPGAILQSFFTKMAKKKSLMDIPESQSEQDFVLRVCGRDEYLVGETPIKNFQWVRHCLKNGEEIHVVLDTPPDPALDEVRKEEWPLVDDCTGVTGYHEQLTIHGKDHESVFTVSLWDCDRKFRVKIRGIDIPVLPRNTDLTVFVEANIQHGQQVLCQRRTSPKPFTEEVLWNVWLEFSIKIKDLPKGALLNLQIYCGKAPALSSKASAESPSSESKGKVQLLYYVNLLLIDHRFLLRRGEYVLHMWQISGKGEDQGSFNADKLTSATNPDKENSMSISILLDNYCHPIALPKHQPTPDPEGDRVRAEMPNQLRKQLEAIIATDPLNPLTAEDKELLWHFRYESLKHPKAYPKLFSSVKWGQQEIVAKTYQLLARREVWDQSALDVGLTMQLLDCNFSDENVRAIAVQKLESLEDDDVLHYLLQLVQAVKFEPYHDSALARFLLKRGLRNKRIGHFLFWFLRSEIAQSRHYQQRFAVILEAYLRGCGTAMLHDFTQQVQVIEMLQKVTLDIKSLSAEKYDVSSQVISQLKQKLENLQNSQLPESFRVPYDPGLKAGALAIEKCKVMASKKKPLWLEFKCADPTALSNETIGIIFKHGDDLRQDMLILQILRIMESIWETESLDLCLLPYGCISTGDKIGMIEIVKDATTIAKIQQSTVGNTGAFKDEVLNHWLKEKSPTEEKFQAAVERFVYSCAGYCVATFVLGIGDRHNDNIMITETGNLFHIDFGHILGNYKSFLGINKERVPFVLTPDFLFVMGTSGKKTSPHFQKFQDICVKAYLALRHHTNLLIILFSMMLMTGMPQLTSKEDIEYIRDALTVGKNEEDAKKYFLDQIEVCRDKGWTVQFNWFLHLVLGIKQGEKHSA

| SMILES | IC50 |
| --- | --- |
| COc1ccc2sc(C(=O)Nc3nnn[nH]3)c(Sc3cccc(C(F)(F)F)c3)c2c1F | 11 µM |
| COc1cc2c(Sc3ccc(Cl)cc3)c(C(=O)Nc3nnn[nH]3)sc2cc1F | 0.0455 µM |
| COc1cc2c(OC3CCN(C(=O)OC(C)(C)C)CC3)c(C(=O)Nc3nn[nH]n3)sc2cc1F | 0.016 µM |
| COc1cc2c(OCC3(C)CC3)c(C(=O)Nc3nn[nH]n3)sc2cc1F | 0.014 µM |
| COc1ccc2c(SC3CCCCC3)c(C(=O)Nc3nnn[nH]3)sc2c1F | 0.027 µM |
| COc1ccc2sc(C(=O)Nc3nnn[nH]3)c(Sc3ccc(CC(=O)O)cc3)c2c1F | 19.4 µM |
| COc1cc2c(Oc3ccccc3)c(C(=O)Nc3nn[nH]n3)sc2cc1F | 0.0245 µM |
| COc1ccc2sc(C(=O)Nc3nnn[nH]3)c(Sc3ccc(C4CCCCC4)cc3)c2c1F | 0.505 µM |
| COc1cc2c(SC3CCCCC3)c(C(=O)Nc3nnn[nH]3)sc2cc1F | 0.012 µM |
| COc1cc2c(O[C@@H]3CCC[C@H](C)C3)c(C(=O)Nc3nn[nH]n3)sc2cc1F | 0.0038 µM |
| COc1ccc2sc(C(=O)Nc3nnn[nH]3)c(SC(c3ccccc3)C(C)N(C)C(C)=O)c2c1F (configuration not stated) | 20 µM |
| COc1cc2c(O[C@@H]3CCC[C@@H](C)C3)c(C(=O)Nc3nn[nH]n3)sc2cc1F | 0.035 µM |
